Assay results reported in patent US9695154B2, “Heteroaryl inhibitors of sumo activating enzyme” (MILLENNIUM PHARMACEUTICALS, INC., priority 2013, dated 2017).

Target: T1, recombinant human SAE enzyme (Homo sapiens, UniProt Q9UBT2)
T1 sequence (Q9UBT2 1-640): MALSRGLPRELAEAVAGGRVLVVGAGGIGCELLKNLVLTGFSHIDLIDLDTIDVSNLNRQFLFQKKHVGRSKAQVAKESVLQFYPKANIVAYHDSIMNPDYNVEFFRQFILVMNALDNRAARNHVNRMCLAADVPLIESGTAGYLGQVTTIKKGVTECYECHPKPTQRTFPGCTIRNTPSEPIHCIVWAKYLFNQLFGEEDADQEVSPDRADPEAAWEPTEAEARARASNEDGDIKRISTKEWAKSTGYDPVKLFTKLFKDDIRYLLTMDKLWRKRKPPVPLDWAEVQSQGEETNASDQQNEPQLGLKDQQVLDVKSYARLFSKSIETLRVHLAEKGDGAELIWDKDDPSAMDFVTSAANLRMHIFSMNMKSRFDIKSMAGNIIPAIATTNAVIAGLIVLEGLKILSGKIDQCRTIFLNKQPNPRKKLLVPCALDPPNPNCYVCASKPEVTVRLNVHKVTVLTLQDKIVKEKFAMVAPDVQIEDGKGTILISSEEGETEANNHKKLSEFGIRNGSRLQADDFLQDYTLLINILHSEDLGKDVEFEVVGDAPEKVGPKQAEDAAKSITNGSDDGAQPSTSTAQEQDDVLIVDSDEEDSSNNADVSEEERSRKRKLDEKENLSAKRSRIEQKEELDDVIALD
T1 sequence (Q9UBE0 1-346 partner): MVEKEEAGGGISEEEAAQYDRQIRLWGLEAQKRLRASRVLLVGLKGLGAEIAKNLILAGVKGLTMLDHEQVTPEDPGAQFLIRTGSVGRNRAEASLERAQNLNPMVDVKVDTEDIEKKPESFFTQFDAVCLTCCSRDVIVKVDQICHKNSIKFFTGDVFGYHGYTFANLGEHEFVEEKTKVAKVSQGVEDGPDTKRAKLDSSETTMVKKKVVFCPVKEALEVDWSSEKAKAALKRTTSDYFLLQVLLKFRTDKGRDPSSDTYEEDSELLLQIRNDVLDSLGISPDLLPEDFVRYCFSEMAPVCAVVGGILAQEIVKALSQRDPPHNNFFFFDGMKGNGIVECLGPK
Assay: SAE HTRF Enzyme Assay
Format: biochemical
Details: for IC50: class symbols A-C; for inhibition at 0.111 µM: compound concentration 0.111 μM, read-out: Percent Inhibition
Method in brief: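 SAE 0.11 nM; ATP 0.5 μM; Sumo-Flag 0.125 μM; Ubc9-GST 0.01 μM; 250 μM GSH, 5 mM MgCl2, pH 7.5. 105 min, 24° C. EDTA/KF stop plus Eu/APC antibodies, 2 h, TR-FRET. % inhibition or IC50.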

SMILES	IC50 [nM]	inhibition at 0.111 µM [%]
NS(=O)(=O)OC[C@H]1C[C@@H](Nc2ncncc2C(=O)c2ccn(Cc3ccccc3OC(F)(F)F)n2)[C@H](O)[C@@H]1O [Compound I-98, [(1R,2R,3S,4R)-2,3-dihydroxy-4-{[5-({1-[2-(trifluoromethoxy)benzyl]-1H-pyrazol-3-yl}carbonyl)pyrimidin-4-yl]amino}cyclopentyl]methyl sulfamate]	< 10	96
Cc1cc(C(=O)c2cncnc2N[C@@H]2C[C@H](COS(N)(=O)=O)[C@@H](O)C2)nn1Cc1cccc(Cl)n1 [Compound I-99, [(1R,2S,4R)-4-{[5-({1-[(6-chloropyridin-2-yl)methyl]-5-methyl-1H-pyrazol-3-yl}carbonyl)pyrimidin-4-yl]amino}-2-hydroxycyclopentyl]methyl sulfamate]	< 10	> 99
NS(=O)(=O)OC[C@H]1C[C@@H](Nc2ncncc2C(=O)c2ccn(Cc3ccc(Cl)c(OC(F)(F)F)c3)n2)[C@H](O)[C@@H]1O [Compound I-100, [(1R,2R,3S,4R)-4-{[5-({1-[4-chloro-3-(trifluoromethoxy)benzyl]-1H-pyrazol-3-yl}carbonyl)pyrimidin-4-yl]amino}-2,3-dihydroxycyclopentyl]methyl sulfamate]	< 10	98
Cc1cc(C(=O)c2cncnc2N[C@@H]2C[C@H](COS(N)(=O)=O)[C@@H](O)C2)nn1Cc1ccc(Cl)o1 [Compound I-101, [(1R,2S,4R)-4-{[5-({1-[(5-chloro-2-furyl)methyl]-5-methyl-1H-pyrazol-3-yl}carbonyl)pyrimidin-4-yl]amino}-2-hydroxycyclopentyl]methyl sulfamate]	< 10	100
NS(=O)(=O)OC[C@H]1C[C@@H](Nc2ncncc2C(=O)c2ccn(Cc3cccc(C(F)(F)F)c3)n2)[C@@H](F)[C@@H]1O [Compound I-102, [(1R,2R,3R,4R)-3-fluoro-2-hydroxy-4-{[5-({1-[3-(trifluoromethyl)benzyl]-1H-pyrazol-3-yl}carbonyl)pyrimidin-4-yl]amino}cyclopentyl]methyl sulfamate]	< 10	97
NS(=O)(=O)OC[C@H]1C[C@@H](Nc2ncncc2C(=O)c2ccn(Cc3ccc4ccccc4c3)n2)[C@H](O)[C@@H]1O [Compound I-103, {(1R,2R,3S,4R)-2,3-dihydroxy-4-[(5-{[1-(2-naphthylmethyl)-1H-pyrazol-3-yl]carbonyl}pyrimidin-4-yl)amino]cyclopentyl}methyl sulfamate]	< 10	97
NS(=O)(=O)OC[C@H]1C[C@@H](Nc2ncncc2C(=O)c2ccn(Cc3cc(I)ccc3Cl)n2)C[C@@H]1O [Compound I-104, {(1R,2S,4R)-4-[(5-{[1-(2-chloro-5-iodobenzyl)-1H-pyrazol-3-yl]carbonyl}pyrimidin-4-yl)amino]-2-hydroxycyclopentyl}methyl sulfamate]	< 10	100
NS(=O)(=O)OC[C@H]1C[C@@H](Nc2ncncc2C(=O)c2cc(Cl)n(Cc3cccc(Br)c3)c2Cl)[C@@H](F)[C@@H]1O [Compound I-105, {(1R,2R,3R,4R)-4-[(5-{[1-(3-bromobenzyl)-2,5-dichloro-1H-pyrrol-3-yl]carbonyl}pyrimidin-4-yl)amino]-3-fluoro-2-hydroxycyclopentyl}methyl sulfamate]	100 to 1000	18
NS(=O)(=O)OC[C@H]1C[C@@H](Nc2ncncc2C(=O)c2ccn(Cc3ccc(F)cc3)n2)[C@H](O)[C@@H]1O [Compound I-106, {(1R,2R,3S,4R)-4-[(5-{[1-(4-fluorobenzyl)-1H-pyrazol-3-yl]carbonyl}pyrimidin-4-yl)amino]-2,3-dihydroxycyclopentyl}methyl sulfamate]	< 10	> 99
C/C=C/Cn1ccc(C(=O)c2cncnc2N[C@@H]2C[C@H](COS(N)(=O)=O)[C@@H](O)C2)n1 [Compound I-107, [(1R,2S,4R)-4-{[5-({1-[(2E)-but-2-en-1-yl]-1H-pyrazol-3-yl}carbonyl)pyrimidin-4-yl]amino}-2-hydroxycyclopentyl]methyl sulfamate]	10 to 100	70
N#CCn1ccc(C(=O)c2cncnc2N[C@@H]2C[C@H](COS(N)(=O)=O)[C@@H](O)C2)n1 [Compound I-108, {(1R,2S,4R)-4-[(5-{[1-(cyanomethyl)-1H-pyrazol-3-yl]carbonyl}pyrimidin-4-yl)amino]-2-hydroxycyclopentyl}methyl sulfamate]	100 to 1000	18
CC(C)(O)c1cccc(Cn2ccc(C(=O)c3cncnc3N[C@@H]3C[C@H](COS(N)(=O)=O)[C@@H](O)C3)n2)n1 [Compound I-109, [(1R,2S,4R)-2-hydroxy-4-({5-[(1-{[6-(2-hydroxypropan-2-yl)pyridin-2-yl]methyl}-1H-pyrazol-3-yl)carbonyl]pyrimidin-4-yl}amino)cyclopentyl]methyl sulfamate]	10 to 100	76
NS(=O)(=O)OC[C@H]1C[C@@H](Nc2ncncc2C(=O)c2ccn(Cc3cc4ccccc4o3)c2)[C@@H](F)[C@@H]1O [Compound I-110, {(1R,2R,3R,4R)-4-[(5-{[1-(1-benzofuran-2-ylmethyl)-1H-pyrrol-3-yl]carbonyl}pyrimidin-4-yl)amino]-3-fluoro-2-hydroxycyclopentyl}methyl sulfamate]	< 10	99
NS(=O)(=O)OC[C@H]1C[C@@H](Nc2ncncc2C(=O)c2nn(Cc3cccc(Br)c3)cc2Cl)C[C@@H]1O [Compound I-111, {(1R,2S,4R)-4-[(5-{[1-(3-Bromobenzyl)-4-chloro-1H-pyrazol-3-yl]carbonyl}pyrimidin-4-yl)amino]-2-hydroxycyclopentyl}methyl sulfamate]	< 10	91
NS(=O)(=O)OC[C@H]1C[C@@H](Nc2ncncc2C(=O)c2ccn(Cc3ccc(Cl)c(F)c3)n2)[C@H](O)[C@@H]1O [Compound I-112, {(1R,2R,3S,4R)-4-[(5-{[1-(4-chloro-3-fluorobenzyl)-1H-pyrazol-3-yl]carbonyl}pyrimidin-4-yl)amino]-2,3-dihydroxycyclopentyl}methyl sulfamate]	< 10	97
CC(C)(C)C#CCn1ccc(C(=O)c2cncnc2N[C@@H]2C[C@H](COS(N)(=O)=O)[C@@H](O)C2)n1 [Compound I-113, {(1R,2S,4R)-4-[(5-{[1-(4,4-dimethylpent-2-yn-1-yl)-1H-pyrazol-3-yl]carbonyl}pyrimidin-4-yl)amino]-2-hydroxycyclopentyl}methyl sulfamate]	10 to 100	81
NS(=O)(=O)OC[C@H]1C[C@@H](Nc2ncncc2C(=O)c2ccn(Cc3cc(C(F)(F)F)co3)c2)[C@@H](F)[C@@H]1O [Compound I-114, [(1R,2R,3R,4R)-3-fluoro-2-hydroxy-4-({5-[(1-{[4-(trifluoromethyl)-2-furyl]methyl}-1H-pyrrol-3-yl)carbonyl]pyrimidin-4-yl}amino)cyclopentyl]methyl sulfamate]	< 10	98
CC#CCCn1ccc(C(=O)c2cncnc2N[C@@H]2C[C@H](COS(N)(=O)=O)[C@@H](O)C2)n1 [Compound I-115]	100 to 1000	33
C=CC(=O)N(C)c1cccc(Cn2ccc(C(=O)c3cncnc3N[C@@H]3C[C@H](COS(N)(=O)=O)[C@@H](O)[C@@H]3F)n2)c1 [Compound I-116, [(1R,2R,3R,4R)-4-({5-[(1-{3-[Acryloyl(methyl)amino]benzyl}-1H-pyrazol-3-yl)carbonyl]pyrimidin-4-yl}amino)-3-fluoro-2-hydroxycyclopentyl]methyl sulfamate]	100 to 1000	33
NS(=O)(=O)OC[C@H]1C[C@@H](Nc2ncncc2C(=O)c2ccn(Cc3cccc(OC(F)F)c3)n2)C[C@@H]1O [Compound I-117, [(1R,2S,4R)-4-{[5-({1-[3-(difluoromethoxy)benzyl]-1H-pyrazol-3-yl}carbonyl)pyrimidin-4-yl]amino}-2-hydroxycyclopentyl]methyl sulfamate]	< 10	98
NS(=O)(=O)OC[C@H]1C[C@@H](Nc2ncncc2C(=O)c2ccn(CCc3cccc4ccccc34)n2)[C@H](O)[C@@H]1O [Compound I-118, [(1R,2R,3S,4R)-2,3-dihydroxy-4-{[5-({1-[2-(1-naphthyl)ethyl]-1H-pyrazol-3-yl}carbonyl)pyrimidin-4-yl]amino}cyclopentyl]methyl sulfamate]	< 10	99
